Measured values reported in US20170166974A1, “METHOD FOR THE TREATMENT OF MULTIPLE MYELOMA” (Erasmus University Medical CEnter Rotherdam, priority 2014, published 2017).

Tested on: multiple myeloma patients
Experiment: Survival analysis (PFS and OS) of multiple myeloma patients by molecular cluster, HOVON-65/GMMG-HD4 phase III trial, PAD vs VAD
Type: in vivo, human
Protocol: Survival analysis was performed on a group of 301 MM patients, treated with Bortezomib (treated with PAD, a combination of bortezomib, adriamycin, and dexamethasone)) or conventional therapy (treated with VAD, a combination of vincristine, adriamycin, and dexamethasone). The patient group was stratified into ten clusters (Table 1).
A total number of 833 patients were included in a large prospective, randomized, phase III trial (HOVON-65/GMMG-HD4). Patients were randomly assigned to three cycles of induction treatment with vincristine, doxorubicin, and dexamethasone (VAD), or Bortezomib, doxorubicin, and dexamethasone (PAD). Both groups received high-dose melphalan with autologous stem-cell rescue followed by maintenance treatment with thalidomide (group assigned to VAD) or Bortezomib (group assigned to PAD) for 2 years (Sonneveld et al., J. Clin. Oncol. Vol. 30, 24:2946-2955, 2012).
The gene expression dataset GSE19784 was used, derived from patients included in the HOVON-65/GMMG-HD4 trial (Broyl et al., Blood 2010 116:2543-2553). A total number of 320 patients were included in the molecular classification and follow-up data were available for 319 patients. Clusters with less than ten patients were not included in this study, the total number of patients was, therefore, 301 (Table 1). Progression-free survival (PFS) was calculated from randomization until progression, relapse or death, whichever came first. Patients who received a non-myeloablative allogeneic stem cell transplantation (AlloSCT) were censored at the date of AlloSCT. Overall survival (OS) was measured from randomization until death from any cause. Patients alive at the date of last contact were censored. The median follow-up was 41 months. Survival analysis was performed using the SPSS software. Kaplan
Meier analysis was performed using the log rank test to assess for significance in survival time between clusters.

SMILES: CC(C)C[C@H](NC(=O)[C@H](Cc1ccccc1)NC(=O)c1cnccn1)B(O)O [Bortezomib]
- median PFS (CD-2 cluster): 32 months
- difference in median PFS, conventional vs Bortezomib (CTA cluster): no difference
- median OS (MF cluster): 54 months
- median PFS (MF cluster): 27 months
- PFS longer than in conventional treatment group (MS cluster): 6 months
- median OS (MS cluster): > 41 months
- median PFS (Myeloid cluster): 32 months
- median PFS (NF-κB cluster): 32 months
- median OS (PR cluster): 22 months
- median PFS (PR cluster): 19 months
- difference in median PFS, conventional vs Bortezomib (hyperdiploid cluster): no difference
